From ChEMBL document CHEMBL5260858, “Targeting mycobacterial membranes and membrane proteins: Progress and limitations” (Bioorg Med Chem, 2023)
≈ marks a conversion by molar mass, not a printed value.

Legend:
[1] = test system: Mycobacterium tuberculosis; assay: Antimycobacterial activity against BTZ-resistant Mycobacterium tuberculosis NTB1 assessed as bacterial growth inhibition incubated for 6 days by resazurin dye based assay; assay type: functional; conditions: NTB1, 144 h, time 6 day
[2] = test system: Mycobacterium tuberculosis; assay: Antimycobacterial activity against multidrug resistant Mycobacterium tuberculosis 16833 assessed as bacterial growth inhibition incubated for 7 days by microplate Alamar blue assay; assay type: functional; conditions: Mycobacterium tuberculosis, 16833, 168 h; time 7 day
[3] = test system: Mycobacterium tuberculosis; assay: Antimycobacterial activity against multidrug resistant Mycobacterium tuberculosis 16995 assessed as bacterial growth inhibition incubated for 7 days by microplate Alamar blue assay; assay type: functional; conditions: Mycobacterium tuberculosis, 16995, 168 h; time 7 day
[4] = test system: Mycobacterium tuberculosis; assay: Antitubercular activity against multidrug resistant Mycobacterium tuberculosis SK-7782 assessed as bacterial growth inhibition by resazurin microtiter assay; assay type: functional
[5] = test system: Mycobacterium tuberculosis; assay: microbe, parasite or virus in culture; conditions: 144 h
[6] = test system: Mycobacterium tuberculosis; assay: microbe, parasite or virus in culture; conditions: 144 h; remark: listed apart in the source
[7] = test system: Mycobacterium tuberculosis; assay: Antitubercular activity against Mycobacterium tuberculosis H37Rv overexpressing DprE1 assessed as bacterial growth inhibition; assay type: functional
[8] = test system: Mycobacterium tuberculosis; assay: Antitubercular activity against extensively drug resistant Mycobacterium tuberculosis assessed as bacterial growth inhibition incubated for 6 days by resazurin based fluorescence assay; assay type: functional; conditions: 144 h, time 6 day
[9] = test system: Mycobacterium tuberculosis; assay: Antitubercular activity against multidrug resistant Mycobacterium tuberculosis assessed as bacterial growth inhibition incubated for 6 days by resazurin based fluorescence assay; assay type: functional; conditions: 144 h, time 6 day
[10] = test system: Mycobacterium tuberculosis; assay: Antitubercular activity against multidrug-resistant clinical isolate Mycobacterium tuberculosis CDCT-3 assessed as bacterial growth inhibition; assay type: functional
[11] = test system: Mycobacterium tuberculosis; assay: Antitubercular activity against multidrug-resistant clinical isolate Mycobacterium tuberculosis CDCT-27 assessed as bacterial growth inhibition; assay type: functional
[12] = test system: Mycobacterium tuberculosis; assay: Antitubercular activity against multidrug-resistant clinical isolate Mycobacterium tuberculosis CDCT-2 assessed as bacterial growth inhibition; assay type: functional
[13] = test system: Mycobacterium tuberculosis; assay: Antitubercular activity against isoniazid resistant Mycobacterium tuberculosis ATCC 35822 infected in RAW264.7 cells assessed as inhibition of intracellular bacterial growth incubated for 6 days by microplate alamar blue assay; assay type: functional; design: scale not given: the % may be the effect or the level left; conditions: time 6 day
[14] = test system: Mycobacterium tuberculosis; assay: Antitubercular activity against ethambutol resistant Mycobacterium tuberculosis ATCC 35837 inhibition infected in RAW264.7 cells assessed as inhibition of intracellular bacterial growth incubated for 6 days by microplate alamar blue assay; assay type: functional; design: scale not given: the % may be the effect or the level left; conditions: time 6 day
[15] = test system: Mycobacterium tuberculosis; assay: Antitubercular activity against rifampicin resistant Mycobacterium tuberculosis ATCC 35838 infected in RAW264.7 cells assessed as inhibition of intracellular bacterial growth incubated for 6 days by microplate alamar blue assay; assay type: functional; design: scale not given: the % may be the effect or the level left; conditions: time 6 day
[16] = test system: Mycobacterium tuberculosis; assay: Antitubercular activity against multidrug resistant Mycobacterium tuberculosis clinical isolate assessed as bacterial growth inhibition; assay type: functional
[17] = test system: Mycobacterium tuberculosis; assay: Antimycobacterial activity against clinically isolated multidrug resistant Mycobacterium tuberculosis assessed as bacterial growth inhibition incubated for 14 days by CLSI protocol based assay; assay type: functional; conditions: 336 h, time 14 day

`O=c1nc(N2CCN(S(=O)(=O)c3cccs3)CC2)sc2c([N+](=O)[O-])cc(C(F)(F)F)cc12` was tested, and the MIC [1] was greater than 100000 ng/mL.

Compound `O=c1nc(N2CC3CN(Cc4ccc(Cl)c(F)c4)CC3C2)sc2c([N+](=O)[O-])cc(C(F)(F)F)cc12` (stereo not given) has an MIC [2] of 0.102 µM (≈ 0.0539 µg/mL) and an MIC [3] of 0.073 µM (≈ 0.0386 µg/mL).

Compound `COc1ccc(/C=C2/S/C(=N/N=C/c3ccccc3O)NC2=O)cc1` has an MIC90 [4] of 1000 ng/mL (≈ 2.83 µM).

`CNC(=O)c1c(-c2ccc(O)cc2)oc2ccc(O)c(CN3CCCCC3)c12` gave an MIC [5] of 0.06 µM (≈ 0.0228 µg/mL) and an MIC [6] of 0.125 µM (≈ 0.0476 µg/mL).

In the case of `C[C@@H](NC(=O)c1cc([N+](=O)[O-])cc(C(F)(F)F)c1)c1ccccc1`, the MIC [7] was 310 ng/mL (≈ 0.916 µM).

`c1cc2c(s1)CCOC21CCN(Cc2ccc3c(c2)OCCO3)CC1` was tested, and the MIC [8] was 0.3 µM (≈ 0.107 µg/mL) and the MIC [9] was 0.3 µM (≈ 0.107 µg/mL).

For `CCCc1ccc(NC(=O)COc2cc(C)nc3ccc(OC)cc23)cc1`, the MIC [10] was 8 ng/mL (≈ 0.022 µM), the MIC [11] was 4 ng/mL (≈ 0.011 µM) and the MIC [12] was less than 2 ng/mL.

In the case of `CC(C)=CCC/C(C)=C/CNCCNC1C2CC3CC(C2)CC1C3` (stereo not given) [SQ109], the Activity [13] was 99%, the Activity [14] was 99% and the Activity [15] was 99%.

For `COc1nc2ccc(Br)cc2cc1[C@@H](c1ccccc1)[C@@](O)(CCN(C)C)c1cccc2ccccc12` [BEDAQUILINE], the MIC [16] was 10 ng/mL (≈ 0.018 µM).

For `CCc1ccc([C@H]2C[C@@H](C(F)(F)F)n3ncc(C(=O)NCc4ccc(OC)cc4)c3N2)cc1`, the MIC [8] was 0.3 µM (≈ 0.138 µg/mL) and the MIC [9] was 0.16 µM (≈ 0.0734 µg/mL).

For `CCCCCc1ccc(NC(=O)COc2cc(C)nc3ccc(OC)cc23)cc1`, the MIC [10] was less than 2 ng/mL, the MIC [11] was less than 2 ng/mL and the MIC [12] was less than 2 ng/mL.

`C[C@@]1(COc2ccc(N3CCC(Oc4ccc(OC(F)(F)F)cc4)CC3)cc2)Cn2cc([N+](=O)[O-])nc2O1` was tested, and the MIC [17] was 6 ng/mL (≈ 0.0112 µM).

`CC1(C)CC(=O)C(=CNc2ccccc2O)C(=O)C1` gave an MIC90 [4] of 8000 ng/mL (≈ 30.9 µM).

`CCc1ccc(NC(=O)COc2cc(C)nc3ccc(OC)cc23)cc1` showed an MIC [10] of 8 ng/mL (≈ 0.0228 µM), an MIC [11] of 8 ng/mL (≈ 0.0228 µM) and an MIC [12] of less than 2 ng/mL.

Compound `O=c1nc(N2CCN(S(=O)(=O)C3CC3)CC2)sc2c([N+](=O)[O-])cc(C(F)(F)F)cc12` has an MIC [1] of 14700 ng/mL (≈ 31.7 µM).

With `O=c1nc(N2CC3CN(Cc4ccc(OC(F)(F)F)cc4)CC3C2)sc2c([N+](=O)[O-])cc(C(F)(F)F)cc12` (stereo not given) the MIC [2] was 0.085 µM (≈ 0.0476 µg/mL) and the MIC [3] was 0.053 µM (≈ 0.0297 µg/mL).

In the case of `CCS(=O)(=O)N1CCN(c2nc(=O)c3cc(C(F)(F)F)cc([N+](=O)[O-])c3s2)CC1`, the MIC [1] was 25100 ng/mL (≈ 55.5 µM).
